Among the data in ChEMBL document CHEMBL1139960 (Bioorg Med Chem Lett, 2007) are IC50 and Activity values, retold here.

Broadly, the IC50 is the concentration needed to halve the response being measured.

A short description of assay [1]: (§1) Antagonist activity at GABAC rho1 receptor expressed in Xenopus laevis oocytes assessed as reduction of GABA-induced chloride ion currents. The assay is classed as functional, cell-based. The conditions noted are these: Homo sapiens, Oocyte.
Assay [2] concerns Oocyte. The assay is described as follows: Activity at GABAC rho1 receptor expressed in Xenopus laevis oocytes assessed as activation of GABA-induced chloride ion currents. The conditions noted are these: Homo sapiens. It is filed as cell-based.
Assay [3] deals with Oocyte. The description is as §1. It is filed as functional, cell-based. The following applies: Homo sapiens.

Each structure is given as a SMILES string. The source made the active and inactive calls. The rule behind the calls is not given here.

For `CCCCP(=O)(O)OCCN`, in assay [1], the concentration for half-maximal inhibition (IC50) worked out at 68.2 µM.
With `NCCOP(=O)(O)Cc1ccccc1`, the outcome in the assay with Oocyte [2] and in the assay on Oocyte [3] was inactive.
For `CP(=O)(O)C1=CCNCC1`, the IC50 in assay [1] stood at 0.67 µM.
